Assay type in all cases: biochemical
The target in one assay is T1, human Yes1 enzyme (Homo sapiens, UniProt P07947).
T1 construct: made in house
Briefly: Yes1 enzyme inhibitory activity (time-resolved fluorometry, biotinylated peptide phosphorylation). The following applies: biotinylated peptide phosphorylation, read-out: YES_IC50. In outline:
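Inhibition was expressed against a compound-free control to give IC50, using TR-FRET read-out (Eu-cryptate anti-pTyr antibody, streptavidin-XL665).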

The next assay concerns the target T2, human Src enzyme (Homo sapiens, UniProt P12931).
T2 construct: purchased Carna Biosciences, Inc. 08-173
Briefly: Src enzyme inhibitory activity (time-resolved fluorometry, biotinylated peptide phosphorylation). The following applies: biotinylated peptide phosphorylation, read-out: SRC_IC50. In outline: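 Compounds were tested for blocking tyrosine phosphorylation of a biotinylated peptide substrate by recombinant human Src. Phosphorylated product was quantified by time-resolved fluorometry using europium cryptate and XL665 conjugates, and IC50 was calculated against the compound-free control.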

In the next assay the target is T3, human Lck enzyme (Homo sapiens, UniProt P06239).
T3 construct: purchased Carna Biosciences, Inc. 08-170
T3 sequence (P06239 whole entry): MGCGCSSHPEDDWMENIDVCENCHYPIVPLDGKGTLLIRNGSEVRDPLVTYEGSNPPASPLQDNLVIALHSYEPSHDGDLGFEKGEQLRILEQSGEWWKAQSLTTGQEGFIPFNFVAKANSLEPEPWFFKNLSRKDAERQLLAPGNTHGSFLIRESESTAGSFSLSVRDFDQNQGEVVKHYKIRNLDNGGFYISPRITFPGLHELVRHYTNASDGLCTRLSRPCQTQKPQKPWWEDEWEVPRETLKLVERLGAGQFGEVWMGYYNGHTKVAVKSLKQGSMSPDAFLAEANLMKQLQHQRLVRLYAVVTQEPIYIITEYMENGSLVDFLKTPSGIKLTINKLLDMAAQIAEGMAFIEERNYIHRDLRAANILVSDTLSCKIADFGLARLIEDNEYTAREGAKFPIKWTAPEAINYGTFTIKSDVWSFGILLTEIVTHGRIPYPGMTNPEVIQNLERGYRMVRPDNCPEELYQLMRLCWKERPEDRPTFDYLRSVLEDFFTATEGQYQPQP
Briefly: Lck enzyme inhibitory activity (time-resolved fluorometry, biotinylated peptide phosphorylation). The following applies: biotinylated peptide phosphorylation, read-out: LCK_IC50. The gist of the method: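 Readout pairs a europium cryptate-labelled anti-phosphotyrosine antibody with XL665-streptavidin, measured by time-resolved fluorescence. IC50 derived from percent inhibition against untreated controls.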

This note sets out measurements from patent US10479780B2, “Aminopyrazole derivatives” (Chugai Seiyaku Kabushiki Kaisha, priority 2015, dated 2019).

T2 sequence (P12931 whole entry): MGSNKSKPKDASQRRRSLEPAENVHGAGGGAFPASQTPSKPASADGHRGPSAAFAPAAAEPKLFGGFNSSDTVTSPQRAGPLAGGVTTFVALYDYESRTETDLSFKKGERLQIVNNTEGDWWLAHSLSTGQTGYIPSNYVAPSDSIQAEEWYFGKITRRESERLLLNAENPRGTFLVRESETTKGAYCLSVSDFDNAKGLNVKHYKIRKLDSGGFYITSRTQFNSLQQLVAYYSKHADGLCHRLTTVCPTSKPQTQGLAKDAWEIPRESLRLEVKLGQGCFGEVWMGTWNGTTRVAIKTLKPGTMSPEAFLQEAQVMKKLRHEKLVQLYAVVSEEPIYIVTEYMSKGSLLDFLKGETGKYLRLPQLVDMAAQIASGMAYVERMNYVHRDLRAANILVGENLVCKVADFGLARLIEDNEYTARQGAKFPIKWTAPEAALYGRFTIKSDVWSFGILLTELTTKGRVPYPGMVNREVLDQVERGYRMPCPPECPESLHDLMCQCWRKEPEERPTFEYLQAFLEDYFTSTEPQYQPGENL
T1 sequence (P07947 whole entry): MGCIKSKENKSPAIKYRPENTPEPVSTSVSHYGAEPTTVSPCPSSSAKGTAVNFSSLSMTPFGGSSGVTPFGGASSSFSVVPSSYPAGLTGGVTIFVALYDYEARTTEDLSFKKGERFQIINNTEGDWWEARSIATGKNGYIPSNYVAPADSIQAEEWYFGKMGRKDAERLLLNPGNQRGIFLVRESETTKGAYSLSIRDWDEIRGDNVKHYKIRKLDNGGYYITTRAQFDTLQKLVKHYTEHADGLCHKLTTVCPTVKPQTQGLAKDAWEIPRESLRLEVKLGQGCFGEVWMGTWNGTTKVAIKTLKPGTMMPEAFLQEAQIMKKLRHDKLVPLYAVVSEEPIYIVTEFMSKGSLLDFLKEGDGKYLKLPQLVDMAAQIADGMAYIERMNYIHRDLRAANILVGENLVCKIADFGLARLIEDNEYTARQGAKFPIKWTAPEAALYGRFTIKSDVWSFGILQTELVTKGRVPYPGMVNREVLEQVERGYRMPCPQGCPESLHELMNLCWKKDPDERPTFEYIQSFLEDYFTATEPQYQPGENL

With `Cc1cc(Oc2ccccc2F)ncc1-n1ncc(C(=O)c2cc3cc(Cl)c(NS(C)(=O)=O)cc3[nH]2)c1N` [Example 4-2-085, N-[2-[5-amino-1-[6-(2-fluorophenoxy)-4-methylpyridin-3-yl]pyrazole-4-carbonyl]-5-chloro-1H-indol-6-yl]methanesulfonamide], the IC50 at human Yes1 enzyme was determined as 0.81 nM; on human Src enzyme, 51 nM; on human Lck enzyme, 7.6 nM.
The corresponding values for `Cc1cc(Oc2c(F)cccc2F)ncc1-n1ncc(C(=O)c2cc3cc(Cl)c(NS(C)(=O)=O)cc3[nH]2)c1N` [Example 4-2-086, N-[2-[5-amino-1-[6-(2,6-difluorophenoxy)-4-methylpyridin-3-yl]pyrazole-4-carbonyl]-5-chloro-1H-indol-6-yl]methanesulfonamide] are 1.6 nM, 99 nM and 8.3 nM.
The corresponding values for `Cc1cc(Oc2cccc(F)c2F)ncc1-n1ncc(C(=O)c2cc3cc(Cl)c(NS(C)(=O)=O)cc3[nH]2)c1N` [Example 4-2-087, N-[2-[5-amino-1-[6-(2,3-difluorophenoxy)-4-methylpyridin-3-yl]pyrazole-4-carbonyl]-5-chloro-1H-indol-6-yl]methanesulfonamide] are 2.7 nM, 220 nM and 55 nM.
The corresponding values for `Cc1cc(Oc2ccccc2Cl)ncc1-n1ncc(C(=O)c2cc3cc(Cl)c(NS(C)(=O)=O)cc3[nH]2)c1N` [Example 4-2-088, N-[2-[5-amino-1-[6-(2-chlorophenoxy)-4-methylpyridin-3-yl]pyrazole-4-carbonyl]-5-chloro-1H-indol-6-yl]methanesulfonamide] are 2.6 nM, 170 nM and 48 nM.
For the compound `Cc1cc(Oc2c(F)cccc2Cl)ncc1-n1ncc(C(=O)c2cc3cc(Cl)c(NS(C)(=O)=O)cc3[nH]2)c1N` [Example 4-2-089, N-[2-[5-amino-1-[6-(2-chloro-6-fluorophenoxy)-4-methylpyridin-3-yl]pyrazole-4-carbonyl]-5-chloro-1H-indol-6-yl]methanesulfonamide], the IC50 at human Yes1 enzyme was found to be 2.7 nM; on human Src enzyme it was 180 nM; at human Lck enzyme, 13 nM.
The corresponding values for `Cc1ccccc1Oc1cc(C)c(-n2ncc(C(=O)c3cc4cc(Cl)c(NS(C)(=O)=O)cc4[nH]3)c2N)cn1` [Example 4-2-090, N-[2-[5-amino-1-[4-methyl-6-(2-methylphenoxy)pyridin-3-yl]pyrazole-4-carbonyl]-5-chloro-1H-indol-6-yl]methanesulfonamide] are 1.5 nM, 110 nM and 17 nM.
The corresponding values for `Cc1cc(Oc2cccc(Cl)c2)ncc1-n1ncc(C(=O)c2cc3cc(Cl)c(NS(C)(=O)=O)cc3[nH]2)c1N` [Example 4-2-091, N-[2-[5-amino-1-[6-(3-chlorophenoxy)-4-methylpyridin-3-yl]pyrazole-4-carbonyl]-5-chloro-1H-indol-6-yl]methanesulfonamide] are 9.7 nM, 350 nM and 140 nM.
The corresponding values for `Cc1cc(Oc2ccc(F)cc2)ncc1-n1ncc(C(=O)c2cc3cc(Cl)c(NS(C)(=O)=O)cc3[nH]2)c1N` [Example 4-2-092, N-[2-[5-amino-1-[6-(4-fluorophenoxy)-4-methylpyridin-3-yl]pyrazole-4-carbonyl]-5-chloro-1H-indol-6-yl]methanesulfonamide] are 19 nM, 270 nM and 78 nM.
Consider `Cc1cc(Oc2ccccc2F)cc(F)c1-n1ncc(C(=O)c2cc3cc(NS(C)(=O)=O)c(Cl)cc3[nH]2)c1N` [Example 4-2-093, N-[2-[5-amino-1-[2-fluoro-4-(2-fluorophenoxy)-6-methylphenyl]pyrazole-4-carbonyl]-6-chloro-1H-indol-5-yl]methanesulfonamide], for which the IC50 on human Yes1 enzyme worked out at 0.89 nM; at human Src enzyme it was 19 nM; on human Lck enzyme, 5.7 nM.
The corresponding values for `Cc1cc(Oc2cccc(F)c2F)cc(F)c1-n1ncc(C(=O)c2cc3cc(NS(C)(=O)=O)c(Cl)cc3[nH]2)c1N` [Example 4-2-094, N-[2-[5-amino-1-[4-(2,3-difluorophenoxy)-2-fluoro-6-methylphenyl]pyrazole-4-carbonyl]-6-chloro-1H-indol-5-yl]methanesulfonamide] are 2 nM, 33 nM and 8.2 nM.
The corresponding values for `Cc1cc(Oc2ccccc2)cc(F)c1-n1ncc(C(=O)c2cc3cc(NS(C)(=O)=O)c(Cl)cc3[nH]2)c1N` [Example 4-2-095, N-[2-[5-amino-1-(2-fluoro-6-methyl-4-phenoxyphenyl)pyrazole-4-carbonyl]-6-chloro-1H-indol-5-yl]methanesulfonamide] are 0.85 nM, 14 nM and 5.3 nM.
The corresponding values for `Cc1cc(Oc2ccccc2F)ncc1-n1ncc(C(=O)c2cc3cc(NS(C)(=O)=O)c(Cl)cc3[nH]2)c1N` [Example 4-2-096, N-[2-[5-amino-1-[6-(2-fluorophenoxy)-4-methylpyridin-3-yl]pyrazole-4-carbonyl]-6-chloro-1H-indol-5-yl]methanesulfonamide] are 0.38 nM, 9.5 nM and 2.6 nM.
On to `Cc1cc(Oc2ccccc2F)ccc1-n1ncc(C(=O)c2cc3cc(NS(C)(=O)=O)c(F)cc3[nH]2)c1N` [Example 4-2-097, N-[2-[5-amino-1-[4-(2-fluorophenoxy)-2-methylphenyl]pyrazole-4-carbonyl]-6-fluoro-1H-indol-5-yl]methanesulfonamide], for which the IC50 at human Yes1 enzyme was determined as 0.28 nM; at human Src enzyme, 8.1 nM; at human Lck enzyme, 1.8 nM.
The corresponding values for `Cc1cc(Oc2cccc(F)c2F)ccc1-n1ncc(C(=O)c2cc3cc(NS(C)(=O)=O)c(F)cc3[nH]2)c1N` [Example 4-2-098, N-[2-[5-amino-1-[4-(2,3-difluorophenoxy)-2-methylphenyl]pyrazole-4-carbonyl]-6-fluoro-1H-indol-5-yl]methanesulfonamide] are 0.39 nM, 15 nM and 2.5 nM.
For `Cc1cc(Oc2ccccc2F)cc(F)c1-n1ncc(C(=O)c2cc3cc(NS(C)(=O)=O)c(F)cc3[nH]2)c1N` [Example 4-2-099, N-[2-[5-amino-1-[2-fluoro-4-(2-fluorophenoxy)-6-methylphenyl]pyrazole-4-carbonyl]-6-fluoro-1H-indol-5-yl]methanesulfonamide], the IC50 on human Yes1 enzyme came out at 0.61 nM; at human Src enzyme, 15 nM; on human Lck enzyme it was 2.8 nM.
The corresponding values for `Cc1cc(Oc2cccc(F)c2F)cc(F)c1-n1ncc(C(=O)c2cc3cc(NS(C)(=O)=O)c(F)cc3[nH]2)c1N` [Example 4-2-100, N-[2-[5-amino-1-[4-(2,3-difluorophenoxy)-2-fluoro-6-methylphenyl]pyrazole-4-carbonyl]-6-fluoro-1H-indol-5-yl]methanesulfonamide] are 0.73 nM, 27 nM and 2.1 nM.
The corresponding values for `Cc1cc(Oc2cc(F)ccc2F)cc(F)c1-n1ncc(C(=O)c2cc3cc(NS(C)(=O)=O)c(F)cc3[nH]2)c1N` [Example 4-2-101, N-[2-[5-amino-1-[4-(2,5-difluorophenoxy)-2-fluoro-6-methylphenyl]pyrazole-4-carbonyl]-6-fluoro-1H-indol-5-yl]methanesulfonamide] are 0.74 nM, 50 nM and 2.9 nM.
The corresponding values for `Cc1cc(Oc2ccccc2Cl)cc(F)c1-n1ncc(C(=O)c2cc3cc(NS(C)(=O)=O)c(F)cc3[nH]2)c1N` [Example 4-2-102, N-[2-[5-amino-1-[4-(2-chlorophenoxy)-2-fluoro-6-methylphenyl]pyrazole-4-carbonyl]-6-fluoro-1H-indol-5-yl]methanesulfonamide] are 0.89 nM, 48 nM and 3.9 nM.
Take `Cc1cc(Oc2ccccc2)cc(F)c1-n1ncc(C(=O)c2cc3cc(NS(C)(=O)=O)c(F)cc3[nH]2)c1N` [Example 4-2-103, N-[2-[5-amino-1-(2-fluoro-6-methyl-4-phenoxyphenyl)pyrazole-4-carbonyl]-6-fluoro-1H-indol-5-yl]methanesulfonamide]: the IC50 at human Yes1 enzyme is 0.41 nM; at human Src enzyme it was 7 nM; at human Lck enzyme it was 0.97 nM.
The corresponding values for `Cc1cc(Oc2ccccc2F)ncc1-n1ncc(C(=O)c2cc3cc(NS(C)(=O)=O)c(F)cc3[nH]2)c1N` [Example 4-2-104, N-[2-[5-amino-1-[6-(2-fluorophenoxy)-4-methylpyridin-3-yl]pyrazole-4-carbonyl]-6-fluoro-1H-indol-5-yl]methanesulfonamide] are 0.56 nM, 22 nM and 1.9 nM.
The corresponding values for `Cc1cc2cc(C(=O)c3cnn(-c4ccc(Oc5ccccc5F)cc4C)c3N)[nH]c2cc1NS(=O)(=O)N1CCOCC1` [Example 4-2-105, N-[2-[5-amino-1-[4-(2-fluorophenoxy)-2-methylphenyl]pyrazole-4-carbonyl]-5-methyl-1H-indol-6-yl]morpholine-4-sulfonamide] are 0.36 nM, 100 nM and 24 nM.
The corresponding values for `Cc1cc2cc(C(=O)c3cnn(-c4ccc(Oc5cccc(F)c5F)cc4C)c3N)[nH]c2cc1NS(=O)(=O)N1CCOCC1` [Example 4-2-106, N-[2-[5-amino-1-[4-(2,3-difluorophenoxy)-2-methylphenyl]pyrazole-4-carbonyl]-5-methyl-1H-indol-6-yl]morpholine-4-sulfonamide] are 1.4 nM, 180 nM and 51 nM.
